# According to patent publication US8192962B2, “Processes for detecting toxic substances” (Daikin Industries, Ltd., priority 2001, dated 2012):
# Tested on: Unknown protein yeast genes
# Test: DNA chip mRNA expression in yeast, unknown protein yeast genes (Table 1)
# Type: cell-based, Saccharomyces cerevisiae S288C
# Outline: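 Measured as treated-to-untreated fluorescence ratio on a full-genome yeast DNA chip. Cells (S288C, YPD, 25° C.) were exposed in log phase for two hours to one chemical, dosed to curb growth without killing.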
smiles,measurement,setting,value
"Cl[C@H]1[C@H](Cl)[C@@H](Cl)[C@@H](Cl)[C@H](Cl)[C@H]1Cl [(7), γ-hexachlorocyclohexane]",The level of expressed mRNA in the presence of chemical substance/The level of expressed mRNA in the absence of chemical substance,"yeast gene YKL195W, incubated two hours with chemical substance",2.1
same,The level of expressed mRNA in the presence of chemical substance/The level of expressed mRNA in the absence of chemical substance,"yeast gene YKR091W, incubated two hours with chemical substance",1.3
same,The level of expressed mRNA in the presence of chemical substance/The level of expressed mRNA in the absence of chemical substance,"yeast gene YLR054C, incubated two hours with chemical substance",1.1
same,The level of expressed mRNA in the presence of chemical substance/The level of expressed mRNA in the absence of chemical substance,"yeast gene YLR149C, incubated two hours with chemical substance",1.6
same,The level of expressed mRNA in the presence of chemical substance/The level of expressed mRNA in the absence of chemical substance,"yeast gene YLR152C, incubated two hours with chemical substance",1.4
same,The level of expressed mRNA in the presence of chemical substance/The level of expressed mRNA in the absence of chemical substance,"yeast gene YLR194C, incubated two hours with chemical substance",1.0
same,The level of expressed mRNA in the presence of chemical substance/The level of expressed mRNA in the absence of chemical substance,"yeast gene YLR324W, incubated two hours with chemical substance",1.0
same,The level of expressed mRNA in the presence of chemical substance/The level of expressed mRNA in the absence of chemical substance,"yeast gene YLR350W, incubated two hours with chemical substance",1.2
same,The level of expressed mRNA in the presence of chemical substance/The level of expressed mRNA in the absence of chemical substance,"yeast gene YLR387C, incubated two hours with chemical substance",1.1
same,The level of expressed mRNA in the presence of chemical substance/The level of expressed mRNA in the absence of chemical substance,yeast gene YLR460C,1.1
same,The level of expressed mRNA in the presence of chemical substance/The level of expressed mRNA in the absence of chemical substance,"yeast gene YML117W, incubated two hours with chemical substance",0.7
same,The level of expressed mRNA in the presence of chemical substance/The level of expressed mRNA in the absence of chemical substance,"yeast gene YMR009W, incubated two hours with chemical substance",1.9
same,The level of expressed mRNA in the presence of chemical substance/The level of expressed mRNA in the absence of chemical substance,"yeast gene YMR067C, incubated two hours with chemical substance",1.2
same,The level of expressed mRNA in the presence of chemical substance/The level of expressed mRNA in the absence of chemical substance,yeast gene YMR090W,2.7
same,The level of expressed mRNA in the presence of chemical substance/The level of expressed mRNA in the absence of chemical substance,"yeast gene YMR095C, incubated two hours with chemical substance",1.2
same,The level of expressed mRNA in the presence of chemical substance/The level of expressed mRNA in the absence of chemical substance,"yeast gene YMR097C, incubated two hours with chemical substance",1.5
same,The level of expressed mRNA in the presence of chemical substance/The level of expressed mRNA in the absence of chemical substance,"yeast gene YMR102C, incubated two hours with chemical substance",1.8
same,The level of expressed mRNA in the presence of chemical substance/The level of expressed mRNA in the absence of chemical substance,"yeast gene YMR107W, incubated two hours with chemical substance",1.2
same,The level of expressed mRNA in the presence of chemical substance/The level of expressed mRNA in the absence of chemical substance,"yeast gene YMR180C, incubated two hours with chemical substance",1.7
same,The level of expressed mRNA in the presence of chemical substance/The level of expressed mRNA in the absence of chemical substance,"yeast gene YMR184W, incubated two hours with chemical substance",1.6
same,The level of expressed mRNA in the presence of chemical substance/The level of expressed mRNA in the absence of chemical substance,"yeast gene YMR191W, incubated two hours with chemical substance",2.0
same,The level of expressed mRNA in the presence of chemical substance/The level of expressed mRNA in the absence of chemical substance,"yeast gene YMR295C, incubated two hours with chemical substance",1.3
same,The level of expressed mRNA in the presence of chemical substance/The level of expressed mRNA in the absence of chemical substance,"yeast gene YMR316W, incubated two hours with chemical substance",2.0
same,The level of expressed mRNA in the presence of chemical substance/The level of expressed mRNA in the absence of chemical substance,"yeast gene YNL044W, incubated two hours with chemical substance",0.9
same,The level of expressed mRNA in the presence of chemical substance/The level of expressed mRNA in the absence of chemical substance,"yeast gene YNL074C, incubated two hours with chemical substance",1.1
same,The level of expressed mRNA in the presence of chemical substance/The level of expressed mRNA in the absence of chemical substance,"yeast gene YNL092W, incubated two hours with chemical substance",1.6
same,The level of expressed mRNA in the presence of chemical substance/The level of expressed mRNA in the absence of chemical substance,"yeast gene YNL115C, incubated two hours with chemical substance",2.4
same,The level of expressed mRNA in the presence of chemical substance/The level of expressed mRNA in the absence of chemical substance,"yeast gene YNL156C, incubated two hours with chemical substance",1.9
same,The level of expressed mRNA in the presence of chemical substance/The level of expressed mRNA in the absence of chemical substance,"yeast gene YNL234W, incubated two hours with chemical substance",1.2
same,The level of expressed mRNA in the presence of chemical substance/The level of expressed mRNA in the absence of chemical substance,"yeast gene YNL281W, incubated two hours with chemical substance",1.2
same,The level of expressed mRNA in the presence of chemical substance/The level of expressed mRNA in the absence of chemical substance,"yeast gene YNL305C, incubated two hours with chemical substance",1.7
same,The level of expressed mRNA in the presence of chemical substance/The level of expressed mRNA in the absence of chemical substance,"yeast gene YNR068C, incubated two hours with chemical substance",1.8
same,The level of expressed mRNA in the presence of chemical substance/The level of expressed mRNA in the absence of chemical substance,"yeast gene YOL032W, incubated two hours with chemical substance",1.4
same,The level of expressed mRNA in the presence of chemical substance/The level of expressed mRNA in the absence of chemical substance,"yeast gene YOL036W, incubated two hours with chemical substance",1.0
same,The level of expressed mRNA in the presence of chemical substance/The level of expressed mRNA in the absence of chemical substance,"yeast gene YOL047C, incubated two hours with chemical substance",1.3
same,The level of expressed mRNA in the presence of chemical substance/The level of expressed mRNA in the absence of chemical substance,"yeast gene YOL071W, incubated two hours with chemical substance",2.0
same,The level of expressed mRNA in the presence of chemical substance/The level of expressed mRNA in the absence of chemical substance,"yeast gene YOL082W, incubated two hours with chemical substance",2.5
same,The level of expressed mRNA in the presence of chemical substance/The level of expressed mRNA in the absence of chemical substance,"yeast gene YOL083W, incubated two hours with chemical substance",3.1
same,The level of expressed mRNA in the presence of chemical substance/The level of expressed mRNA in the absence of chemical substance,"yeast gene YOL117W, incubated two hours with chemical substance",1.6
same,The level of expressed mRNA in the presence of chemical substance/The level of expressed mRNA in the absence of chemical substance,"yeast gene YOL131W, incubated two hours with chemical substance",1.3
same,The level of expressed mRNA in the presence of chemical substance/The level of expressed mRNA in the absence of chemical substance,yeast gene YOL150C,2.4
same,The level of expressed mRNA in the presence of chemical substance/The level of expressed mRNA in the absence of chemical substance,"yeast gene YOL162W, incubated two hours with chemical substance",2.0
same,The level of expressed mRNA in the presence of chemical substance/The level of expressed mRNA in the absence of chemical substance,"yeast gene YOR019W, incubated two hours with chemical substance",2.8
same,The level of expressed mRNA in the presence of chemical substance/The level of expressed mRNA in the absence of chemical substance,"yeast gene YOR197W, incubated two hours with chemical substance",0.9
same,The level of expressed mRNA in the presence of chemical substance/The level of expressed mRNA in the absence of chemical substance,"yeast gene YPL087W, incubated two hours with chemical substance",4.2
same,The level of expressed mRNA in the presence of chemical substance/The level of expressed mRNA in the absence of chemical substance,"yeast gene YPL196W, incubated two hours with chemical substance",2.4
same,The level of expressed mRNA in the presence of chemical substance/The level of expressed mRNA in the absence of chemical substance,"yeast gene YPL206C, incubated two hours with chemical substance",1.2
same,The level of expressed mRNA in the presence of chemical substance/The level of expressed mRNA in the absence of chemical substance,"yeast gene YPL222W, incubated two hours with chemical substance",1.1
same,The level of expressed mRNA in the presence of chemical substance/The level of expressed mRNA in the absence of chemical substance,"yeast gene YPR023C, incubated two hours with chemical substance",1.2
same,The level of expressed mRNA in the presence of chemical substance/The level of expressed mRNA in the absence of chemical substance,"yeast gene YPR151C, incubated two hours with chemical substance",4.4
